Test results: patent US8629144B2, “Polymorphic and hydrate forms, salts and process for preparing 6-{difluoro[6-(1-methyl-1H-pyrazol-4-yl)[1,2,4]triazolo[4,3-b]pyridazin-3-yl]methyl}quinoline” (Janssen Pharmaceutica NV, priority 2007, dated 2014)
≈ marks a conversion by molar mass, not a printed value. Where two headings read alike, the source gives them in different places.

How the values were obtained:
Assay type in all cases: physicochemical
[1] = Aqueous solubility of Forms I, III and hydrate at different pH
Method: Solubility of polymorph Forms I and III and the hydrate form of the compound of formula (I) was tested in aqueous conditions at different pH values.

[2] = Adsorption and desorption of water at 25° C. (Form I)
Method: Adsorption and desorption of water at 25° C. at different conditions of relative humidity was investigated on about 10 mg Form I of compound of formula (I), by registering the weight change as a function of relative humidity.
During an initial drying step a weight loss of 0.05% was registered.

[3] = Crystallographic stability of Form I on storage (TGA, DSC, XRPD, IR); set-up: key to IR: ±Ref: contain some small extra signals
Method: The stability of the crystal structure of polymorph Form I of the compound (I) was studied after storage of the compound in open conditions for a period of six weeks at room temperature (RT) under <5%, 56% and 75% relative humidity (RH) at 50° C., and at 40° C. and 75% RH.
The samples were analysed by TGA, DSC, XRPD and IR spectroscopy.

[4] = Chemical stability of Form I on storage (HPLC, visual inspection)
Method: Chemical stability of Form I was tested in different open storage conditions for periods of 1, 4 and 8 weeks: 40° C./75% RH; 50° C.; RT/<5% RH; RT/56% RH; RT/75% RH and 0.3da ICH high intensity light. The compound was analysed after storage by HPLC and by visual inspection.

[5] = Slurry conversion on mixtures of Form III and Form I (XRPD); set-up: key to Polymorphic composition (XRPD) after slurry: Form I; *: low amount of product; settings: for Polymorphic composition (XRPD) after slurry: overnight
Method: 30 mg of mixture of Form III and Form I and 0.25 ml solvent (2-propanol; or ethanol/water (8/2, v/v)) were placed in a vial. For each solvent, 2 vials were prepared and stored each at different temperatures (RT, 70° C.) overnight. After storage, the slurry was spread on a paper filter, the solid fractions were collected and dried 2 hours at RT. The polymorphic composition was measured using XRPD.

[6] = Stability of the hydrate form in aqueous suspension (XRPD, SEM); settings: aqueous suspension 16 mg/ml
Method: Aqueous suspension of the compound of formula (I) 16 mg/ml was stored at about 4° C. up to 9 days. Samples were taken after 1, 2 and 9 days of storage. The suspensions were spread over a paper filter and dried at room temperature for 2 hours. The obtained materials were analysed by XRPD.
Moreover, the hydrate remained stable in the aqueous medium for at least 9 days (XRD not substantially changed).

[7] = Thermal conversions in DSC oven (XRPD)
Method: Form III or hydrate form were thermally treated in a DSC oven (heating rate 10° C./min) up to selected temperatures (isotherm for 1 min) using an open sample pan. The selected temperatures are for Form III: 110° C. and 170° C.; and for hydrate form: 70° C., 110° C. and 170° C. The polymorphic composition of the obtained fractions was measured by XRPD. Table 12 summarises XRPD patterns in DSC treated Form III. Table 13 summarises XRPD patterns in DSC treated hydrate

[8] = six weeks open storage, 40° C./75% RH
[9] = six weeks open storage, RT/56% RH
[10] = six weeks open storage, RT/75% RH
[11] = six weeks open storage, RT/<5% RH

Cn1cc(-c2ccc3nnc(C(F)(F)c4ccc5ncccc5c4)n3n2)cn1 [Form I, 6-{difluoro[6-(1-methyl-1H-pyrazol-4-yl)[1,2,4]triazolo[4,3-b]pyridazin-3-yl]methyl}quinoline]
Solubility ([1]; aqueous medium, simulated gastric fluid, thermodynamic from solid, 0.01 HCl, read-out: Solubility): 100 µg/mL (≈ 265 µM) | Solubility ([1]; aqueous medium, simulated gastric fluid, thermodynamic from solid, 0.1 HCl, read-out: Solubility): 1300 µg/mL (≈ 3450 µM) | Solubility ([1]; pH2): 430 µg/mL (≈ 1140 µM) | Solubility ([1]; pH4): 5 µg/mL (≈ 13.3 µM) | Solubility ([1]; pH6): 3 µg/mL (≈ 7.95 µM) | Solubility ([1]; pH8): 4 µg/mL (≈ 10.6 µM) | Solubility ([1]; pH10): 3 µg/mL (≈ 7.95 µM) | Weight loss during initial drying step ([2]; about 10 mg): 0.05% | Water adsorbed by dry product ([2]; depending on the atmospheric humidity): up to 0.5% | Hygroscopic behaviour ([2]; different relative humidity): no hygroscopic behaviour | DSC Max ([3]; 0 days): 201.0 °C | DSC ΔH ([3]; 0 days): 101 J/g | IR ([3]; 0 days): Cryst., Ref | TGA <100° C. ([3]; 0 days): 0.12% | TGA <240° C. ([3]; 0 days): 0.36% | XRD ([3]; 0 days): Cryst., Ref | Crystallographic stability ([3]; after storage under the different conditions): crystallographically stable | DSC Max [3, 8]: 200.5 °C | DSC ΔH [3, 8]: 119 J/g | IR [3, 8]: ~Ref (identical with Form I reference) | TGA <100° C. [3, 8]: 0.33% | TGA <240° C. [3, 8]: 0.48% | XRD [3, 8]: ~Ref (identical with Form I reference) | IR ([3]; six weeks open storage, 50° C.): ~Ref (identical with Form I reference) | TGA <100° C. ([3]; six weeks open storage, 50° C.): 0.31% | TGA <240° C. ([3]; six weeks open storage, 50° C.): 0.57% | XRD ([3]; six weeks open storage, 50° C.): ~Ref (identical with Form I reference) | DSC Max [3, 9]: 200.4 °C | DSC ΔH [3, 9]: 120 J/g | IR [3, 9]: ±Ref | TGA <100° C. [3, 9]: 0.58% | TGA <240° C. [3, 9]: 0.8% | XRD [3, 9]: ~Ref (identical with Form I reference) | DSC Max [3, 10]: 200.1 °C | DSC ΔH [3, 10]: 121 J/g | IR [3, 10]: ±Ref | TGA <100° C. [3, 10]: 0.25% | TGA <240° C. [3, 10]: 0.57% | XRD [3, 10]: ~Ref (identical with Form I reference) | DSC Max [3, 11]: 200.1 °C | DSC ΔH [3, 11]: 124 J/g | IR [3, 11]: ~Ref (identical with Form I reference) | TGA <100° C. [3, 11]: 0.74% | TGA <240° C. [3, 11]: 0.75% | XRD [3, 11]: ~Ref (identical with Form I reference) | HPLC Sum of impurities ([4]; 0.3da ICH light, 1 w): 0.55 w/w % | Appearance ([4]; 0.3da ICH light, 1 week): slightly yellow | HPLC Sum of impurities ([4]; 40° C./75% RH, 1 w): 0.51 w/w % | Appearance ([4]; 40° C./75% RH, 1 week): slightly yellow | HPLC Sum of impurities ([4]; 40° C./75% RH, 4 w): 0.66 w/w % | Appearance ([4]; 40° C./75% RH, 4 weeks): slightly yellow | HPLC Sum of impurities ([4]; 40° C./75% RH, 8 w): 0.54 w/w % | Appearance ([4]; 40° C./75% RH, 8 weeks): slightly yellow | HPLC Sum of impurities ([4]; 50° C., 1 w): 0.56 w/w % | Appearance ([4]; 50° C., 1 week): slightly yellow | HPLC Sum of impurities ([4]; 50° C., 4 w): 0.59 w/w % | Appearance ([4]; 50° C., 4 weeks): slightly yellow | HPLC Sum of impurities ([4]; 50° C., 8 w): 0.54 w/w % | Appearance ([4]; 50° C., 8 weeks): slightly yellow | HPLC Sum of impurities ([4]; RT/56% RH, 4 w): 0.53 w/w % | Appearance ([4]; RT/56% RH, 4 weeks): slightly yellow | HPLC Sum of impurities ([4]; RT/56% RH, 8 w): 0.53 w/w % | Appearance ([4]; RT/56% RH, 8 weeks): slightly yellow | HPLC Sum of impurities ([4]; RT/75% RH, 4 w): 0.53 w/w % | Appearance ([4]; RT/75% RH, 4 weeks): slightly yellow | HPLC Sum of impurities ([4]; RT/75% RH, 8 w): 0.77 w/w % | Appearance ([4]; RT/75% RH, 8 weeks): slightly yellow | HPLC Sum of impurities ([4]; RT/<5% RH, 4 w): 0.62 w/w % | Appearance ([4]; RT/<5% RH, 4 weeks): slightly yellow | HPLC Sum of impurities ([4]; RT/<5% RH, 8 w): 0.53 w/w % | Appearance ([4]; RT/<5% RH, 8 weeks): slightly yellow | HPLC Sum of impurities ([4]; Reference, 1 w): 0.54 w/w % | Appearance ([4]; Reference, 1 week): slightly yellow | Chemical stability ([4]; all investigated conditions): chemically stable | Relative polymorph stability ([5]; from RT up to 70° C.): most stable polymorph

Cn1cc(-c2ccc3nnc(C(F)(F)c4ccc5ncccc5c4)n3n2)cn1 [hydrate, 6-{difluoro[6-(1-methyl-1H-pyrazol-4-yl)[1,2,4]triazolo[4,3-b]pyridazin-3-yl]methyl}quinoline]
Solubility ([1]; 0.01 HCl): 56 µg/mL | Solubility ([1]; 0.1 HCl): 810 µg/mL | Solubility ([1]; pH2): 65 µg/mL | Solubility ([1]; pH4): 2 µg/mL | Solubility ([1]; pH6): 1 µg/mL | Solubility ([1]; pH8): 1 µg/mL | Solubility ([1]; pH10): 1 µg/mL | Time hydrate remained stable in the aqueous medium (XRD not substantially changed) ([6]; about 4° C.): at least 9 days | XRPD measured composition ([7]; DSC treated hydrate, up to 70° C.): hydrate + Form III | XRPD measured composition ([7]; DSC treated hydrate, up to 110° C.): Form III | XRPD measured composition ([7]; DSC treated hydrate, up to 170° C.): mainly Form I | XRPD measured composition ([7]; starting hydrate): hydrate

Cn1cc(-c2ccc3nnc(C(F)(F)c4ccc5ncccc5c4)n3n2)cn1 [mixture of Form III and Form I]
XRD patterns of the stored suspensions ([6]; 4° C., 1 day, 2 days and 9 days): compatible with those of the hydrate form | Polymorphic composition (XRPD) after slurry ([5]; 2-propanol, 70° C.): I | Polymorphic composition (XRPD) after slurry ([5]; 2-propanol, RT): I | Polymorphic composition (XRPD) after slurry ([5]; ethanol/water (8/2, v/v), 70° C., low amount of product): I* | Polymorphic composition (XRPD) after slurry ([5]; ethanol/water (8/2, v/v), RT): I
